The source of these data is patent publication US4704229A, “Surface-active compounds of the sulfobetaines family, their manufacture and use, particularly for enhanced oil recovery” (Institut Francais du Petrole, priority 1984, dated 1987).

What is called solubility is the concentration that dissolves in the medium under given conditions. Lower therefore signals a poorly soluble substance.

Holding throughout (type): physicochemical
Data set [1] is described as follows: Measurement of the critical micellar concentration (CMC) by surface tension (tensiometer, water/SA-ambient air interface). To be noted: permuted water; for CMC: room temperature of 20° C.; for Surface tension: water/SA-ambient air interface, 20° C., Table II beside CMC. The procedure:
Measurement of the critical micellar concentration (CMC) of the sulfobetaines of examples 2, 3, 5, and 7.
Preparation of solutions for the measurements of CMC values.
The method is a standard method using solutions of initial surfactant (SA) concentration of 0.5 g/l, in freshly permuted water, at room temperature of 20° C. The SA-water mixture is stirred up to complete dissolution and then a series of titrated solutions are obtained by successive dilution, by withdrawing a determined volume of mother-solution, brought each time to a standard volume i.e. 1 ml+39 ml; 2 ml+38 ml; 3 ml+37 ml; . . . The various solutions are stirred for 30 minutes and maintained at rest for 2 hours. The surface tensions are measured by means of a tensiometer Tensiomat n^3 Prolabo whose operating principle consists of measuring the pullout load of a stirrup piece placed at the water/SA-ambient air interface, expressed in millinewton/meter.
The CMC value corresponds to the inflection point of the obtained two straight lines.

A short description of data set [2]: Solubility in water at 20° C. The procedure:
Solubility in water at 20° C. of the sulfobetaines of examples 2, 3, 5 and 7 (Table I).

The nature of data set [3]: Micro-emulsion test: determination of optimum solubility and optimum salt content parameters. To be noted: pentanol as cosurfactant, dodecane as oil; brine NaCl/CaCl2 9/1. The source says:
Micro-emulsion test: Determination of optimum solubility and optimum salt content parameters.
The surface-active properties have been determined by analysis of the behaviour of sulfobetaines in a mixture defined according to standard conditions:
brine (NaCl, CaCl2 with (NaCl/CaCl2)=(9/1): 4.5 g
Depending on the salt content of the brine (0-200 g/l), three mono-, di- or triphasic systems can be observed when the product has surface-active properties:
(1) the behavior referred to as Windsor I, wherein an equilibrium is observed between oil phase and με phase*.
(2) a behavior referred to as Windsor II, wherein an equilibrium is observed between με phase and aqueous phase.
(3) and, finally, a so-called Windsor III systems, wherein the intermediary με phase is in equilibrium with a supernatant oil phase and an aqueous phase.
The latter system has the pecularity of very low interfacial tensions. […] The optimum solubility and optimum salinity parameters, corresponding to equal amounts of water and oil in the micro-emulsion, are defined in this system.
By way of example, for sulfobetaine: [drawing 25] the following parameters have been obtained with pentanol as cosurfactant and dodecane as oil: […]

In data set [1], `CCCCCCCCCCCC[N+](C)(C)CCN(CCCS(=O)(=O)[O-])C(C)=O` [Example 2, 4-acetyl-4-aza-6(N,N-dimethyl-laurylammonium)hexane sulfonate] came in with a CMC of 0.04 g/L and a Surface tension of 54 mN/m. Also, in data set [2], the solubility was found to be 300 mg/mL.

Consider `CCCCCCCCCCCCCCCCCC[N+](C)(C)CCN(CCCS(=O)(=O)[O-])C(C)=O` [drawing 25], for which, in data set [3], the optimum salinity parameter worked out at 30 g/L and the optimum solubility parameter amounted to 55%.

In data set [1], `CCCCCCCCCCCCCCCCCC[N+](C)(C)CCN(CCCS(=O)(=O)[O-])C(C)=O` [Example 3, 4-acetyl-4-aza-6 (N,N-dimethyl stearylammonium) hexane sulfonate] registered a CMC of 0.01 g/L and a Surface tension of 35 mN/m. Also, in data set [2], the solubility came out at 80 mg/mL.

In data set [1], `CCCCCCCCCCCCCCCCCC[N+](C)(C)CCCN(CCCCS(=O)(=O)[O-])C(C)=O` [Example 7, 5-acetyl-5-aza-8 (N,N-dimethylstearylammonium)octane sulfonate] gave a CMC of 0.0028 g/L and a Surface tension of 39 mN/m. In data set [2], this compound showed a solubility of 4 mg/mL.

Regarding `CCCCCCCCCCCC[N+](C)(C)CCCN(CCCS(=O)(=O)[O-])C(C)=O` [Example 5, 4-acetyl-4-aza-7 (N,N-dimethyl laurylammonium)heptane sulfonate], in data set [1], the CMC is 0.15 g/L and the Surface tension was found to be 49 mN/m. This compound showed a solubility in data set [2] of 300 mg/mL.
